The values below come from patent US20250084056A1, “SUBSTITUTED OXOISOINDOLINYL PIPERIDINE-2,6-DIONE COMPOUNDS” (BRISTOL-MYERS SQUIBB COMPANY, priority 2023, published 2025).

Each structure is given as a SMILES string. Some results are limits rather than exact numbers.

Common to all, as to format: cell-based
Assay [1] has as its system Phospho-Rb (Ser807/811). Kind of assay: Phospho-Retinoblastoma (pRB) Cellular Assay. Conditions: NIH OVCAR3 cells, 24 hours; for IC50: concentration giving 50% response; for Emax: maximum response, reference compound at 10 μM = 100%, read-out: pRB Ymax. The method, boiled down:
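Phospho-Rb (Ser807/811) kit read-out on EnVision after lysis (≥4 h, room temperature, dark) of OVCAR3 cells exposed to compound dilutions for 24 h. IC50 and maximum response Ymax are relative to a 10 μM reference compound defining 100%.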

Assay [2] has as its target GSPT1 (Homo sapiens, UniProt P15170+Q96SW2). Kind of assay: GSPT1 Cellular Degradation Assay (DF15-GSPT1-ePL). Conditions: DF15-GSPT1-ePL cells, 20 hours. The arrangement: expressed in transfected cells. The method, boiled down:
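DC50 and Dmax were derived from chemiluminescence, with 75% response set by the reference compound at […]. Readout was ePL enzyme-fragment complementation in a DF15 line expressing chimeric GSPT1. Cells were exposed to compound for 20 h at 37 °C in RPMI 1640 with 10% FBS, cooled 30 min, then lysed with substrate for 60 min.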

Assay [3] has as its target Cyclin E1 (Homo sapiens, UniProt P24864+Q96SW2). The assay can be described thus: Cyclin E1 Cellular Degradation Assay (MSD). As to conditions: for DC50 / Dmax: Cyclin E1 cellular degradation; for Dmax: maximum degradation; for Ratio of GSPT1 DC50/Cyclin E1 DC50: selectivity for degradation of Cyclin E1 over GSPT1. The arrangement: endogenous in cells; host or cells: OVCAR3. In short, it runs like this: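 Cyclin E1 remaining after 24 h compound exposure of OVCAR3 cells was quantified in lysates by electrochemiluminescent MSD sandwich assay. DC50 (50% response concentration) and Dmax (maximum response) were calculated, with 110% response set by a reference compound at […].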

Chain of Cyclin E1 (P24864 whole entry): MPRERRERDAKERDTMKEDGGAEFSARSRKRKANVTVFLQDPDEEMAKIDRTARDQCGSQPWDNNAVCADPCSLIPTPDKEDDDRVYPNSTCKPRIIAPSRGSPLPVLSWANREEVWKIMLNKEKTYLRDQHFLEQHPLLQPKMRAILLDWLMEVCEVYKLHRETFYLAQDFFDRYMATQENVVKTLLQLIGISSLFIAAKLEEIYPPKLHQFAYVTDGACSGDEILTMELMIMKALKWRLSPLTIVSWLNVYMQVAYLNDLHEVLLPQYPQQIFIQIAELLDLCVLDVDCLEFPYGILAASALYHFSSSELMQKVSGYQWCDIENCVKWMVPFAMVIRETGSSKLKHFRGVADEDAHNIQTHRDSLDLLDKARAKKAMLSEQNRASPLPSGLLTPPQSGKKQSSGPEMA
Chain of Cyclin E1 (Q96SW2 whole entry): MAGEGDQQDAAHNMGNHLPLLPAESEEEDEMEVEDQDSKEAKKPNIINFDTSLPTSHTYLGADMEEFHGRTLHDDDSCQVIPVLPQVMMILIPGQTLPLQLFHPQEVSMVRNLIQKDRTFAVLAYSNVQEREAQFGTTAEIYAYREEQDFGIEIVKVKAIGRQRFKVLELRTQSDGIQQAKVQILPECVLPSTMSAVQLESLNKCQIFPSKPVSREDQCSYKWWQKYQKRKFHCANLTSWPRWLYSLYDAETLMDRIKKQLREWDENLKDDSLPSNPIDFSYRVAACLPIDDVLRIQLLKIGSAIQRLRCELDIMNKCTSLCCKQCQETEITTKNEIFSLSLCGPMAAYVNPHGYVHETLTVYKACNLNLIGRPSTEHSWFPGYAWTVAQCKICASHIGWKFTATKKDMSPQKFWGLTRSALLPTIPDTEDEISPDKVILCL
Chain of Cyclin E1 (Q16531 whole entry partner): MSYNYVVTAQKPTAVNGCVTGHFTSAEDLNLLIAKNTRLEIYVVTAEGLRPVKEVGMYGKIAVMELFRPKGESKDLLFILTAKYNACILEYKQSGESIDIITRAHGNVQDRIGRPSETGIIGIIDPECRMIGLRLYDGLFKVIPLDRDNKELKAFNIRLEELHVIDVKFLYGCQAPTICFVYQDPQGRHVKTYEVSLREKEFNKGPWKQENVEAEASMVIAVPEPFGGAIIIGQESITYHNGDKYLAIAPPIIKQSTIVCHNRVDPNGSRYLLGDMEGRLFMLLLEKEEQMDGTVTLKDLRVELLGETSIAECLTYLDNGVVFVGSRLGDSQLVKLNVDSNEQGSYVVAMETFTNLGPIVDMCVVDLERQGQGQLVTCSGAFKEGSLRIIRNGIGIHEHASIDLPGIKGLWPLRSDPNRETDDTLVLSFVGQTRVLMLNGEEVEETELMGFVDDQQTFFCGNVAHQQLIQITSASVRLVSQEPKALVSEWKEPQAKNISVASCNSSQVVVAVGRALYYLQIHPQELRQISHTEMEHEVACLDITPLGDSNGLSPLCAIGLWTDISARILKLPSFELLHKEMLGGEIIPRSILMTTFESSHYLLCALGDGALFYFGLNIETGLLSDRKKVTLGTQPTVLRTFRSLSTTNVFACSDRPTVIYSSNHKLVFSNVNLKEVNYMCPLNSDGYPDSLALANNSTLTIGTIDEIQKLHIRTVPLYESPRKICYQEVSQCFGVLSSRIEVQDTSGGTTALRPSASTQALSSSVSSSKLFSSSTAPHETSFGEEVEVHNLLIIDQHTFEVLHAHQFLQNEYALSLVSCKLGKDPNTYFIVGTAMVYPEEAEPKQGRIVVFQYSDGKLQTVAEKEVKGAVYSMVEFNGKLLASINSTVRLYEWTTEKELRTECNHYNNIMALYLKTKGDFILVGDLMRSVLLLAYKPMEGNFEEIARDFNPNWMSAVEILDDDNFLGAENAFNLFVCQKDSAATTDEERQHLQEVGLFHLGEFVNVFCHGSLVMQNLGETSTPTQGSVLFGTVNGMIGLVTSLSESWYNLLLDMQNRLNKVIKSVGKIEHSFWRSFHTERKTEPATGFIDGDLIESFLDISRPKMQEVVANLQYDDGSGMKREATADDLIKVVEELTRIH
Chain of GSPT1 (P15170 whole entry, the tested form may be a part): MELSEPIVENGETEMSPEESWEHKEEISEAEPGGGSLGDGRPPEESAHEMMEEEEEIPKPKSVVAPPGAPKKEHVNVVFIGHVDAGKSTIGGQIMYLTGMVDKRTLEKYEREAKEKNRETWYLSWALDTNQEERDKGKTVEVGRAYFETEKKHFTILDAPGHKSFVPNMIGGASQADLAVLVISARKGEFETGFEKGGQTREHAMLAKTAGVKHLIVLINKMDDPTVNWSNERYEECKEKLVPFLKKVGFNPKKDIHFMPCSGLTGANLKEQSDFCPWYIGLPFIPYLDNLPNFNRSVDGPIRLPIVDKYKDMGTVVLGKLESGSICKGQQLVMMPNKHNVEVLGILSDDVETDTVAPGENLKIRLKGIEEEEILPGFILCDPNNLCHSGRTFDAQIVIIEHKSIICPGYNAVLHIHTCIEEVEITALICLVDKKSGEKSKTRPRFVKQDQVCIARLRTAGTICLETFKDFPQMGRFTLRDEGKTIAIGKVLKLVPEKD
Chain of GSPT1 (Q96SW2 whole entry, the tested form may be a part): as the sequence (Q96SW2 whole entry) above
Chain of GSPT1 (Q16531 whole entry partner, the tested form may be a part): as the sequence (Q16531 whole entry partner) above

What is called IC50 is the concentration that gives 50% inhibition. For orientation: DC50 means the concentration giving 50% degradation. A high value points to degradation only at high concentration. For orientation: Dmax means the greatest extent of degradation seen. Consider `COc1cc(F)c(F)cc1Oc1ccc(NC(=O)OCc2ccc3c(c2OC)C(=O)N(C2CCC(=O)NC2=O)C3)c(C)c1` (centres unmarked) [Example 33, [2-(2,6-dioxopiperidin-3-yl)-4-methoxy-3-oxo-2,3-dihydro-1H-isoindol-5-yl]methyl N-[4-(4,5-difluoro-2-methoxyphenoxy)-2-methylphenyl]carbamate], for which, in assay [1] (Homo sapiens, OVCAR-3), the half-maximal inhibitory concentration (IC50) came out at 0.809 µM and the Emax worked out at 87%. In assay [2], the 50% degradation concentration (DC50) was above 14 µM and the Dmax was 8%. Besides, in assay [3], the 50% degradation concentration (DC50) was 1.63 µM, the Dmax was 85% and the “Ratio of GSPT1 DC50/Cyclin E1 DC50” value is listed as above 9.
Take `O=C1CCC(N2Cc3ccc(COC(=O)Nc4ccc(Oc5ccc(F)c(F)c5)cc4)c(OC4CCCCC4)c3C2=O)C(=O)N1` (centres unmarked) [Example 137, [4-(cyclohexyloxy)-2-(2,6-dioxopiperidin-3-yl)-3-oxo-2,3-dihydro-1H-isoindol-5-yl]methyl N-[4-(3,4-difluorophenoxy)phenyl]carbamate]: in assay [1] (Homo sapiens, OVCAR-3), 0.019 µM corresponded to half-maximal inhibition (IC50) and the Emax worked out at 123%. For the same compound, in assay [2], the DC50 is above 14 µM and the Dmax stood at 1%. Moreover, in assay [3], the half-maximal degradation concentration (DC50) worked out at 0.026 µM, the Dmax was determined as 108% and the “Ratio of GSPT1 DC50/Cyclin E1 DC50” value is above 547.
With `O=C1CCC(N2Cc3ccc(COC(=O)Nc4ccc(Oc5ccc(F)c(F)c5)cc4)c(OC4CCCC4)c3C2=O)C(=O)N1` (centres unmarked) [Example 151, [4-(cyclopentyloxy)-2-(2,6-dioxopiperidin-3-yl)-3-oxo-2,3-dihydro-1H-isoindol-5-yl]methyl N-[4-(3,4-difluorophenoxy)phenyl]carbamate], in assay [1] (Homo sapiens, OVCAR-3), the IC50 came to 0.031 µM and the Emax was 113%. In assay [2], the DC50 is above 14 µM and the Dmax worked out at 10%. Moreover, in assay [3], the DC50 worked out at 0.071 µM, the Dmax was found to be 108% and the “Ratio of GSPT1 DC50/Cyclin E1 DC50” value is above 196.
For the compound `COc1c(COC(=O)Nc2ccc(Oc3cc(F)c(F)cc3F)cc2C)ccc2c1C(=O)N(C1CCC(=O)NC1=O)C2` (centres unmarked) [Example 45, [2-(2,6-dioxopiperidin-3-yl)-4-methoxy-3-oxo-2,3-dihydro-1H-isoindol-5-yl]methyl N-[2-methyl-4-(2,4,5-trifluorophenoxy)phenyl]carbamate], in assay [1] (Homo sapiens, OVCAR-3), the IC50 worked out at 0.112 µM and the Emax worked out at 116%. In assay [2], the 50% degradation concentration (DC50) was above 14 µM and the Dmax was determined as 38%. Also, in assay [3], the DC50 was determined as 0.129 µM, the Dmax stood at 112% and the “Ratio of GSPT1 DC50/Cyclin E1 DC50” value was above 108.
With `COc1c(COC(=O)Nc2ccc(Oc3ccc(F)c(F)c3)cc2)ccc2c1C(=O)N(C1CCC(=O)NC1=O)C2` (centres unmarked) [Example 1, [2-(2,6-dioxopiperidin-3-yl)-4-methoxy-3-oxo-2,3-dihydro-1H-isoindol-5-yl]methyl N-[4-(3,4-difluorophenoxy)phenyl]carbamate], in assay [1] (Homo sapiens, OVCAR-3), the half-inhibitory concentration (IC50) was 0.133 µM and the Emax was found to be 104%. Moreover, in assay [2], the DC50 is above 14 µM and the Dmax came to 27%. Moreover, in assay [3], it took 0.199 µM to reach half-maximal degradation (DC50), the Dmax is 110% and the “Ratio of GSPT1 DC50/Cyclin E1 DC50” value was above 70.
For the compound `O=C1CCC(N2Cc3ccc(COC(=O)Nc4ccc(Oc5ccc(F)cc5Cl)cc4)c(Oc4ccccc4)c3C2=O)C(=O)N1` (centres unmarked) [Example 70, [2-(2,6-dioxopiperidin-3-yl)-3-oxo-4-phenoxy-2,3-dihydro-1H-isoindol-5-yl]methyl N-[4-(2-chloro-4-fluorophenoxy)phenyl]carbamate], in assay [1] (Homo sapiens, OVCAR-3), the concentration for half-maximal inhibition (IC50) came out at 0.223 µM and the Emax was determined as 114%. Also, in assay [2], the DC50 is above 14 µM and the Dmax was found to be 9%. Also, in assay [3], the DC50 is 0.185 µM, the Dmax came out at 94% and the “Ratio of GSPT1 DC50/Cyclin E1 DC50” value is reported as above 76.
On to `CCOc1c(COC(=O)Nc2ccc(Oc3ccccc3)cc2)ccc2c1C(=O)N(C1CCC(=O)NC1=O)C2` (centres unmarked) [Example 52, [2-(2,6-dioxopiperidin-3-yl)-4-ethoxy-3-oxo-2,3-dihydro-1H-isoindol-5-yl]methyl N-(4-phenoxyphenyl)carbamate], for which, in assay [1] (Homo sapiens, OVCAR-3), the IC50 stood at 0.081 µM and the Emax came to 111%. Moreover, in assay [2], the DC50 is above 14 µM and the Dmax came out at 13%. In assay [3], the DC50 was determined as 0.134 µM, the Dmax was determined as 107% and the “Ratio of GSPT1 DC50/Cyclin E1 DC50” value is above 105.
Take `O=C1CCC(N2Cc3ccc(COC(=O)Nc4ccc(Oc5cc(F)c(F)c(F)c5)cc4F)c(O[C@@H]4CCCOC4)c3C2=O)C(=O)N1` (stereo partly drawn) [Example 150, [2-(2,6-dioxopiperidin-3-yl)-4-[(3R)-oxan-3-yloxy]-3-oxo-2,3-dihydro-1H-isoindol-5-yl]methyl N-[2-fluoro-4-(3,4,5-trifluorophenoxy)phenyl]carbamate]: in assay [1] (Homo sapiens, OVCAR-3), the IC50 amounted to 0.096 µM and the Emax was 137%. For the same compound, in assay [2], the half-maximal degradation concentration (DC50) is above 14 µM and the Dmax was 0%. In addition, in assay [3], the half-maximal degradation concentration (DC50) was determined as 0.182 µM, the Dmax turned out to be 100% and the “Ratio of GSPT1 DC50/Cyclin E1 DC50” value was above 77.
In assay [1], `COc1c(COC(=O)Nc2ccc(Oc3ccccc3C)cc2)ccc2c1C(=O)N(C1CCC(=O)NC1=O)C2` (centres unmarked) [Example 92, [2-(2,6-dioxopiperidin-3-yl)-4-methoxy-3-oxo-2,3-dihydro-1H-isoindol-5-yl]methyl N-{4-[2-(^2H3)methylphenoxy]phenyl}carbamate] showed a half-inhibitory concentration (IC50) of 0.034 µM. The half-maximal degradation concentration (DC50) in assay [2] was above 14 µM; in assay [3], 0.17 µM.
In the case of `COc1c(COC(=O)Nc2ccc(Oc3cccc(Br)c3)cc2)ccc2c1C(=O)N(C1CCC(=O)NC1=O)C2` (centres unmarked) [Example 10, [2-(2,6-dioxopiperidin-3-yl)-4-methoxy-3-oxo-2,3-dihydro-1H-isoindol-5-yl]methyl N-[4-(3-bromophenoxy)phenyl]carbamate], in assay [1] (Homo sapiens, OVCAR-3), the concentration for half-maximal inhibition (IC50) stood at 0.352 µM and the Emax was 105%. In addition, in assay [2], the DC50 was above 14 µM and the Dmax worked out at 54%. Further, in assay [3], half-maximal degradation (DC50) was put at 0.114 µM, the Dmax was 106% and the “Ratio of GSPT1 DC50/Cyclin E1 DC50” value is above 123.
Regarding `COc1c(COC(=O)Nc2ccc(Oc3ccc(F)cc3Cl)cc2F)ccc2c1C(=O)N(C1CCC(=O)NC1=O)C2` (centres unmarked) [Example 105, [2-(2,6-dioxopiperidin-3-yl)-4-methoxy-3-oxo-2,3-dihydro-1H-isoindol-5-yl]methyl N-[4-(2-chloro-4-fluorophenoxy)-2-fluorophenyl]carbamate], in assay [1] (Homo sapiens, OVCAR-3), the concentration for half-maximal inhibition (IC50) amounted to 0.033 µM and the Emax was 120%. In assay [2], the DC50 is above 14 µM and the Dmax was determined as 50%. In assay [3], the DC50 amounted to 0.052 µM, the Dmax amounted to 107% and the “Ratio of GSPT1 DC50/Cyclin E1 DC50” value is reported as above 268.
For the compound `COc1c(COC(=O)Nc2ccc(Oc3cccc(F)c3)cc2C)ccc2c1C(=O)N(C1CCC(=O)NC1=O)C2` (centres unmarked) [Example 39, [2-(2,6-dioxopiperidin-3-yl)-4-methoxy-3-oxo-2,3-dihydro-1H-isoindol-5-yl]methyl N-[4-(3-fluorophenoxy)-2-methylphenyl]carbamate], in assay [1] (Homo sapiens, OVCAR-3), the IC50 turned out to be 0.127 µM and the Emax was 111%. In assay [2], the half-maximal degradation concentration (DC50) was above 14 µM and the Dmax stood at 20%. Moreover, in assay [3], the half-maximal degradation concentration (DC50) stood at 0.103 µM, the Dmax was 108% and the “Ratio of GSPT1 DC50/Cyclin E1 DC50” value was above 136.
In the case of `COc1c(COC(=O)Nc2ccc(Oc3cc(F)c(F)c(F)c3)cc2C)ccc2c1C(=O)N(C1CCC(=O)NC1=O)C2` (centres unmarked) [Example 40, [2-(2,6-dioxopiperidin-3-yl)-4-methoxy-3-oxo-2,3-dihydro-1H-isoindol-5-yl]methyl N-[2-methyl-4-(3,4,5-trifluorophenoxy)phenyl]carbamate], in assay [1] (Homo sapiens, OVCAR-3), the half-maximal inhibitory concentration (IC50) came to 0.128 µM and the Emax is 110%. Further, in assay [2], the half-maximal degradation concentration (DC50) is above 14 µM and the Dmax turned out to be 9%. Also, in assay [3], the DC50 stood at 0.041 µM, the Dmax is 108% and the “Ratio of GSPT1 DC50/Cyclin E1 DC50” value is on record as above 339.
`COc1c(COC(=O)Nc2ccc(Oc3cccc(F)c3Cl)cc2)ccc2c1C(=O)N(C1CCC(=O)NC1=O)C2` (centres unmarked) [Example 111, [2-(2,6-dioxopiperidin-3-yl)-4-methoxy-3-oxo-2,3-dihydro-1H-isoindol-5-yl]methyl N-[4-(2-chloro-3-fluorophenoxy)phenyl]carbamate]: in assay [1] (Homo sapiens, OVCAR-3), the IC50 was determined as 0.074 µM and the Emax was 99%. For the same compound, in assay [2], the DC50 was above 14 µM and the Dmax stood at 15%. Besides, in assay [3], it took 0.095 µM to reach half-maximal degradation (DC50), the Dmax turned out to be 106% and the “Ratio of GSPT1 DC50/Cyclin E1 DC50” value is above 147.
In the case of `O=C1CCC(N2Cc3ccc(COC(=O)Nc4ccc(Oc5ccc(F)cc5F)cc4)c(O[C@@H]4CCCOC4)c3C2=O)C(=O)N1` (stereo partly drawn) [Example 145, [2-(2,6-dioxopiperidin-3-yl)-4-[(3R)-oxan-3-yloxy]-3-oxo-2,3-dihydro-1H-isoindol-5-yl]methyl N-[4-(2,4-difluorophenoxy)phenyl]carbamate], in assay [1] (Homo sapiens, OVCAR-3), the half-inhibitory concentration (IC50) came out at 0.037 µM and the Emax stood at 145%. In assay [2], the half-maximal degradation concentration (DC50) was above 14 µM and the Dmax came to 9%. Further, in assay [3], the 50% degradation concentration (DC50) amounted to 0.057 µM, the Dmax came to 111% and the “Ratio of GSPT1 DC50/Cyclin E1 DC50” value is listed as above 247.
